Reference: patent EP4692062A1, “NOVEL AMIDE-BASED COMPOUND AND COMPOSITION COMPRISING SAME” (Amorepacific Corporation, priority 2023, dated 2024)

Key:
Type in all cases: biochemical
MMP-9 = target: T1, MMP-9 (Homo sapiens, UniProt P14780); assay: MMP9 Inhibitor Screening Assay Kit (ab139448), colorimetric thiopeptide substrate, OD412; settings: compound at 50 nM; for remaining activity at 0.05 µM: remaining enzyme activity, untreated group = 100%, n=2; for inhibition at 0.05 µM: read-out: MMP-9 (%) at 50 nM (inhibitory activity)
T1 construct: purchased Abchem (so in the source)
T1 sequence (P14780 94-707): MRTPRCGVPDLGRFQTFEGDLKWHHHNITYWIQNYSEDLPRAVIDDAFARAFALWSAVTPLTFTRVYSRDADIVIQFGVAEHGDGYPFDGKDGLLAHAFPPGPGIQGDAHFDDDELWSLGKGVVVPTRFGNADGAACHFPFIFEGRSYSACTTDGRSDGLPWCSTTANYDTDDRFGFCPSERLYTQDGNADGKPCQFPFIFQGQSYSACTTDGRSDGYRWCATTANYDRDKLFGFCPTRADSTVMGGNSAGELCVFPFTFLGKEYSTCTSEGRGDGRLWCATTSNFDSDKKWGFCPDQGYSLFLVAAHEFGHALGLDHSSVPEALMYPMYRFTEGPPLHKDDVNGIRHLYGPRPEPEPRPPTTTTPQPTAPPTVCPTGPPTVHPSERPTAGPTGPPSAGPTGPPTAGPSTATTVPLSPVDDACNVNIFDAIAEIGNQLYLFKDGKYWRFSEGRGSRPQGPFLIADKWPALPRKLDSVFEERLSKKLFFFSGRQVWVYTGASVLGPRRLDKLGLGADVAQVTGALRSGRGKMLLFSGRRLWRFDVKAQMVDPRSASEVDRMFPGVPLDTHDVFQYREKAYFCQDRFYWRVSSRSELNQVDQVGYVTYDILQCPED
Procedure: Enzyme activity (%) at the same concentration was compared with treatment with 0.5 µM MMP-1 activity and 50 nM MMP-2 and MMP-9 activity (n=2). Here, enzyme activity (%) refers to the enzyme activity (%) of the experimental group when the untreated group is considered to have 100% enzyme activity. To evaluate the effect of the new compound on the enzyme activity, the color change was measured by following the provided protocol using a kit sold by Abchem as follows. Enzyme activity was obtained by comparing absorbance per minute with the untreated group. • MMP1 Inhibitor Screening Assay Kit (ab139443) • MMP2 Inhibitor Screening Assay Kit (ab139446) • MMP9 Inhibitor Screening Assay Kit (ab139448) As MMP activity increases, the substrate is decomposed and the OD412 level increases. Therefore, the change in OD412 level (OD value) per minute was measured and the value was obtained according to the enzyme activity calculation formula below. Here, OD412 means optical density or absorbance at 412 nm. • Thiopeptide (Ac-PLG-[2-mercapto-4-methyl-pentanoyl]-LG-OC2H5) as a chromogenic substrate. • The MMP cleavage site peptide bond was replaced by the thioester bond of the thiopeptide. • Hydrolysis of this bond by MMP generates a sulfhydryl group, which reacts with DTNB [5,5'-dithiobis(2-nitrobenzoic acid), Ellman's reagent] to form 2-nitro-5-thiobenzoic acid. , which can be measured by its absorbance at 412 nm. (ε=13,600 M^-1cm^-1 above pH 6.0) New compound enzyme activity(%) = (Vnew compound/Vuntreated group)*100 [formula] V = change in OD value per minute

MMP-1 = target: T2, MMP-1 (Homo sapiens, UniProt P03956); assay: MMP1 Inhibitor Screening Assay Kit (ab139443), colorimetric thiopeptide substrate, OD412; settings: for remaining activity at 0.5 µM / remaining activity at 10 µM: remaining enzyme activity; for remaining activity at 0.5 µM: untreated group = 100%, compound at 0.5 uM, n=2; for inhibition at 10 µM / remaining activity at 10 µM: T-05~20 at 10 uM; for inhibition at 10 µM: read-out: MMP-1 (%) (inhibitory efficacy, high concentration); for remaining activity at 10 µM: read-out: MMP-1 (%) (enzyme activity, high concentration)
T2 construct: purchased Abchem (so in the source)
T2 sequence (P03956 100-269 limits assumed): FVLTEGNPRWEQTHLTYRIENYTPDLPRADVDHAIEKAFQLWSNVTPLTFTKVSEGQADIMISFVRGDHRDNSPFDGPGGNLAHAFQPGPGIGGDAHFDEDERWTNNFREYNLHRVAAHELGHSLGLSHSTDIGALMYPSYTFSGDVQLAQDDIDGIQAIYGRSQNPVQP
Procedure: Enzyme activity (%) at the same concentration was compared with treatment with 0.5 µM MMP-1 activity and 50 nM MMP-2 and MMP-9 activity (n=2). Here, enzyme activity (%) refers to the enzyme activity (%) of the experimental group when the untreated group is considered to have 100% enzyme activity.
To evaluate the effect of the new compound on the enzyme activity, the color change was measured by following the provided protocol using a kit sold by Abchem as follows.
As MMP activity increases, the substrate is decomposed and the OD412 level increases. Therefore, the change in OD412 level (OD value) per minute was measured and the value was obtained according to the enzyme activity calculation formula below. […] (ε=13,600 M^-1cm^-1 above pH 6.0)
New compound enzyme activity(%) = (Vnew compound/Vuntreated group)*100 [formula] V = change in OD value per minute

MMP-2 [1] = target: T3, MMP-2 (Homo sapiens, UniProt P08253); assay: MMP2 Inhibitor Screening Assay Kit (ab139446), colorimetric thiopeptide substrate, OD412; settings: remaining enzyme activity, untreated group = 100%; compound at 50 nM; n=2
T3 construct: purchased Abchem (so in the source)
T3 sequence (P08253 110-660): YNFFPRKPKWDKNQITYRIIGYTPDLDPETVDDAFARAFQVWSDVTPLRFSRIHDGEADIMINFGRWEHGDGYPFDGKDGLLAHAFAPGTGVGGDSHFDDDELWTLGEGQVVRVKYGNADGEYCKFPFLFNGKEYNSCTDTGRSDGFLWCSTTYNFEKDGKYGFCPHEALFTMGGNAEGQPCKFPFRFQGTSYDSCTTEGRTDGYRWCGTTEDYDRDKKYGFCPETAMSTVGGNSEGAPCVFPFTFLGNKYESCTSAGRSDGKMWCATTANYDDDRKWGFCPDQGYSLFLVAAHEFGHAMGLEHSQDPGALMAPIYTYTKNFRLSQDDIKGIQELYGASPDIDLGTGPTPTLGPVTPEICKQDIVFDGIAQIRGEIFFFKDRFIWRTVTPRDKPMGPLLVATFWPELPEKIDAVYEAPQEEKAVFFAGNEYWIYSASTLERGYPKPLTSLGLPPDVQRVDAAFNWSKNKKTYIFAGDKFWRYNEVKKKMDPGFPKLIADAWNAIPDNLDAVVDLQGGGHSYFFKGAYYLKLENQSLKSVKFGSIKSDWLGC
Procedure: Enzyme activity (%) at the same concentration was compared with treatment with 0.5 µM MMP-1 activity and 50 nM MMP-2 and MMP-9 activity (n=2). Here, enzyme activity (%) refers to the enzyme activity (%) of the experimental group when the untreated group is considered to have 100% enzyme activity. To evaluate the effect of the new compound on the enzyme activity, the color change was measured by following the provided protocol using a kit sold by Abchem as follows. […] Therefore, the change in OD412 level (OD value) per minute was measured and the value was obtained according to the enzyme activity calculation formula below. […] (ε=13,600 M^-1cm^-1 above pH 6.0) New compound enzyme activity(%) = (Vnew compound/Vuntreated group)*100 [formula] V = change in OD value per minute

MMP-2 [2] = target: T3, MMP-2; assay: as above; settings: T-05~20 at 10 uM; for inhibition at 10 µM: read-out: MMP-2 (%) (inhibitory efficacy, high concentration); for remaining activity at 10 µM: remaining enzyme activity, read-out: MMP-2 (%) (enzyme activity, high concentration)

Row | SMILES | remaining activity at 0.05 µM (MMP-9) [%] | remaining activity at 0.5 µM (MMP-1) [%] | remaining activity at 0.05 µM (MMP-2 [1]) [%] | inhibition at 10 µM (MMP-1) [%] | remaining activity at 10 µM (MMP-1) [%] | inhibition at 10 µM (MMP-2 [2]) [%] | remaining activity at 10 µM (MMP-2 [2]) [%] | inhibition at 0.05 µM (MMP-9) [%]
1 | CCCCOc1ccc(S(=O)(=O)N2CCCCC2C(=O)NO)cc1 (centres unmarked) [T-04, 1-((4-butoxyphenyl)sulfonyl)-N-hydroxypiperidine-2-carboxamide] | 0 |  |  |  |  |  |  | 
2 | CC(C)CC(NS(=O)(=O)c1ccccc1)C(=O)NO (centres unmarked) [T-36, N-hydroxy-4-methyl-2-(phenylsulfonamido)pentanamide] | 97.4 | 98.2 | 100 |  |  |  |  | 
3 | CCCCOc1ccc(S(=O)(=O)N2CCCC2C(=O)NO)cc1 (centres unmarked) [T-29, 1-((4-butoxyphenyl)sulfonyl)-N-hydroxypyrrolidine-2-carboxamide] | 50.2 | 100 | 18.9 |  |  |  |  | 
4 | O=C(NO)C(Cc1ccccc1)NS(=O)(=O)c1ccc2ccccc2c1 (centres unmarked) [T-11, N-hydroxy-2-(naphthalene-2-sulfonamido)-3-phenylpropanamide] | 100 | 100 | 82.7 | 42.9 | 57.1 | 93.8 | 6.2 | 
5 | CCCc1ccc(S(=O)(=O)N2CCCCC2C(=O)NO)cc1 (centres unmarked) [T-24, N-hydroxy-1-((4-propylphenyl)sulfonyl)piperidine-2-carboxamide] | 99 | 78.4 | 57.7 |  |  |  |  | 
6 | CC(=NO)c1ccc(S(=O)(=O)N2CCCCC2C(=O)NO)cc1 (centres unmarked) [T-35, N-hydroxy-1-((4-(1-(hydroxyimino)ethyl)phenyl)sulfonyl)piperidine-2-carboxamide] | 19.9 |  |  |  |  |  |  | 
7 | O=C(NO)C1CCCCN1S(=O)(=O)c1ccc(-c2ccccc2)cc1 (centres unmarked) [T-02, 1-([1,1'-biphenyl]-4-ylsulfonyl)-N-hydroxypiperidine-2-carboxamide] | 41.9 |  |  |  |  |  |  | 
8 | O=C(NO)C1CCCCN1S(=O)(=O)c1ccccc1 (centres unmarked) [T-01, N-hydroxy-1-(phenylsulfonyl)piperidine-2-carboxamide] | 79.1 | 34.2 | 81.6 |  |  |  |  | 
9 | CCCCOc1ccc(S(=O)(=O)NC(CC(C)C)C(=O)NO)cc1 (centres unmarked) [T-14, 2-((4-butoxyphenyl)sulfonamido)-N-hydroxy-4-methylpentanamide] | 73.5 | 100 | 0 |  |  |  |  | 26.5
10 | O=C(NO)C1CCCCN1S(=O)(=O)c1ccc(F)cc1 (centres unmarked) [T-21, 1-((4-fluorophenyl)sulfonyl)-N-hydroxypiperidine-2-carboxamide] | 100 | 9.2 | 81.1 |  |  |  |  | 
11 | CC(C)(C)c1ccc(S(=O)(=O)NC(Cc2ccccc2)C(=O)NO)cc1 (centres unmarked) [T-08, 2-((4-(tert-butyl)phenyl)sulfonamido)-N-hydroxy-3-phenylpropanamide] | 100 | 100 | 100 | 12.8 | 87.2 | 0 | 100 | 
12 | Cc1cc(C)c(S(=O)(=O)NC(CC(C)C)C(=O)NO)c(C)c1 (centres unmarked) [T-15, N-hydroxy-4-methyl-2-((2,4,6-trimethylphenyl)sulfonamido)pentanamide] | 100 | 100 | 100 | 0 | 100 | 34.8 | 65.2 | 
13 | Cc1cc(C)c(S(=O)(=O)NC(Cc2ccccc2)C(=O)NO)c(C)c1 (centres unmarked) [T-10, N-hydroxy-3-phenyl-2-((2,4,6-trimethylphenyl)sulfonamido)propanamide] | 100 | 100 | 95.6 | 0 | 100 | 15.5 | 84.5 | 
14 | CC(C)CC(NS(=O)(=O)c1ccc(C(C)(C)C)cc1)C(=O)NO (centres unmarked) [T-13, 2-((4-(tert-butyl)phenyl)sulfonamido)-N-hydroxy-4-methylpentanamide] | 100 | 100 | 100 | 0 | 100 | 71.9 | 28.1 | 
15 | CC(=O)Nc1ccc(S(=O)(=O)N2CCCC2C(=O)NO)cc1 (centres unmarked) [T-40, 1-((4-acetamidophenyl)sulfonyl)-N-hydroxypyrrolidine-2-carboxamide] | 100 | 100 | 100 |  |  |  |  | 
16 | CC(C)C(NS(=O)(=O)c1ccc(C(C)(C)C)cc1)C(=O)NO (centres unmarked) [T-18, 2-((4-(tert-butyl)phenyl)sulfonamido)-N-hydroxy-3-methylbutanamide] | 100 | 100 | 99.9 | 0 | 100 | 0 | 100 | 
17 | Cc1cc(C)c(S(=O)(=O)N2CCCCC2C(=O)NO)c(C)c1 (centres unmarked) [T-05, N-hydroxy-1-(mesitylsulfonyl)piperidine-2-carboxamide] | 100 | 100 | 100 | 8.3 | 91.7 | 15.8 | 84.2 | 
18 | Cc1cc(C)c(S(=O)(=O)NC(C(=O)NO)C(C)C)c(C)c1 (centres unmarked) [T-20, N-hydroxy-3-methyl-2-((2,4,6-trimethylphenyl)sulfonamido)butanamide] | 100 | 100 | 97.8 | 0 | 100 | 59.9 | 40.1 | 0
19 | CC(C)CC(NS(=O)(=O)c1ccc(-c2ccccc2)cc1)C(=O)NO (centres unmarked) [T-12, 2-([1,1'-biphenyl]-4-sulfonamido)-N-hydroxy-4-methylpentanamide] | 70.6 |  |  |  |  |  |  | 
